PMC9742639, “Inhibition of glycogen synthase kinase-3-beta (GSK3β) blocks nucleocapsid phosphorylation and SARS-CoV-2 replication” (Molecular Biomedicine, 2022)
“And” between values parts separate entries of the source, which are not always exact repeats. Equal entries are not always repeated. Where two headings read alike, the source gives them in different places. Square brackets hold non-standard residues; d marks the D form. Primed or numbered codes have the meaning given here. Ends that are not written are not given here. pS′ = not defined here; pT′ = not defined here

Key:
[1] = system: HCoV-229E; assay: Chou-Talalay synergy with Remdesivir in HCoV-229E-infected cells; type: cell-based; details: Chou-Talalay method, CI < 1 synergistic
Protocol: Statistical analyses were performed and figures were prepared using GraphPad Prism 9™ (GraphPad Software, Inc.). Imbedded blots and fluorescent images were generated using GIMP^©. Chou-Talalay synergy analysis was performed using CompuSyn (ComboSyn Inc.). CI values < 1 are defined as synergistic, CI = 1 as additive, and CI > 1 as antagonistic.
Supplemental Figure S4: Synergy experiment. Dose-response combination of Remdesivir (Rem) and T-1686568 (T2) using CompuSyn V1.0. Representative experiment of two independent experiments.

[2] = molecular target: T1, GSK3β (Homo sapiens, UniProt P49841); assay: In vitro inhibition of GSK3β, ADP-Glo Kinase Assay; type: biochemical; details: read-out: IC50, GSK3β enzymatic activity
T1 construct: GST; purchased SignalChem G09-10G
T1 sequence (P49841 whole entry): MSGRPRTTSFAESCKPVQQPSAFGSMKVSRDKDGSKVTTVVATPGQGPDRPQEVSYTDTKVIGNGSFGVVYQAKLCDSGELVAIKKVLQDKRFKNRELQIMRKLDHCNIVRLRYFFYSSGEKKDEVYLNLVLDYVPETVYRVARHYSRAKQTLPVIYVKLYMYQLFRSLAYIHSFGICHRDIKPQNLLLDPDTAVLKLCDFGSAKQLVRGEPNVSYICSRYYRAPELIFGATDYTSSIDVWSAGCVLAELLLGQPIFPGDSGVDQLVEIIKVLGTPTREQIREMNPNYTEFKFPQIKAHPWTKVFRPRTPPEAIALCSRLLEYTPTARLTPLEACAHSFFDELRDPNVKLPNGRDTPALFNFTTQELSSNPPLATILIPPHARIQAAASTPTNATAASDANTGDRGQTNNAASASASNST
Protocol: All protein kinase reactions were performed with the ADP-Glo Kinase Assay from ProMega (Madison, WI, USA). Substrate peptides were assayed at a final concentration of ~ 250 μM with 250 μM ATP for 30 min at 30 °C in a final volume of 25 μL. Recombinant nucleocapsid was similarly assayed at a final concentration of 13.4 ng/μL. The concentrations of recombinant protein kinases used were ~ 2 ng/μL.
Supplemental Figure S3: in vitro inhibition of GSK3. ADP-Glo^TM Kinase Assay normalized to the negative control (100% kinase activity), dose-response was analyzed by non-linear regression.

[3] = system: SARS-CoV-2; assay: SARS-CoV-2 infection of primary donor-derived colon organoids (intracellular N protein); type: cell-based; details: donor intestinal organoids monolayer, 72 hrs post-infection
[4] = system: HCoV-229E; assay: High-content screen / dose-response of HCoV-229E-infected Huh-7.5.1 cells (dsRNA); type: cell-based
[5] = system: SARS-CoV-2; assay: Viral titer from 48-h SARS-CoV-2-infected Calu-3 cells; type: cell-based; details: 48 h after infection and treatment, 100 μM
[6] = in vitro; details: human
Protocol: (§1) Total number of cells (via nuclei staining) and number of virus-infected cells (via dsRNA and nucleocapsid staining) was measured using the CellInsight CX5 High Content Screening platform (Thermo Fisher), as previously described [24]. Briefly, cell nuclei are stained with Hoechst (33342) for detection at the 350/461 nm wavelength and a region of interest (ROI) marks each cell, which is verified using cell membrane imaging in the bright field. The ROI includes the areas where dsRNA (485/521 nm wavelength) and SARS-CoV-2 nucleocapsid (533/588 nm wavelength) are localized. The software (HCS Studio Cell Analysis Software, version 4.0) tallies ROIs where dsRNA and nucleocapsid are located within stained nuclei by compiling pixel area and intensity measurements. The fluorescence emitted by the dsRNA and nucleocapsid are then quantified for each well. The total intensity of each well indicates the viral load and is normalized against non-infected cells and untreated infected cells. Cell loss (from cytotoxicity or poor adherence) was quantified using the same stain (Hoechst 33342) and was used to normalize the changes in viral load resulting from a decrease in cell numbers. Based on average variation in control treatments between experiments, significant cell loss was considered a loss of > 20% cells relative to the non-infected control.

[7] = system: SARS-CoV-2; type: cell-based
[8] = system: Huh-7.5.1 cells; assay: Cell loss / toxicity to Huh-7.5.1 host cells (nuclei count); details: 10 µM, infected Huh-7.5.1 cells
Protocol: as §1

[9] = system: SARS-CoV-2; assay: High-content screen / dose-response of SARS-CoV-2-infected Huh-7.5.1 cells (dsRNA, nucleocapsid); type: cell-based; details: for ED50, activity against SARS-CoV-2 / inhibition at 10 µM: Huh-7.5.1 cells; for ED50, activity against SARS-CoV-2: intracellular N protein; for inhibition at 10 µM: Severe acute respiratory syndrome coronavirus 2
[10] = molecular target: PKACa (Homo sapiens, UniProt P17612); assay: In vitro phosphorylation of nucleocapsid peptides, ADP-Glo; type: biochemical; details: kinase with ATP alone, no peptide = 100; peptide ~250 μM, ATP 250 μM, 30 min
[11] = molecular target: T2, GSK3b (Homo sapiens, UniProt P49841); assay: as above; type: biochemical; details: for Phosphorylation by GSK3b (Table 2): Mean ± Standard deviation, n = 3, no peptide substrate 1995 ± 133; for Relative phosphorylation by GSK3b: kinase with ATP alone, no peptide = 100, peptide ~250 μM, ATP 250 μM, 30 min
T2 construct: GST; purchased SignalChem G09-10G
T2 sequence (P49841 whole entry): as above

[12] = molecular target: T3, PKCa (Homo sapiens, UniProt P17252); assay: as above; type: biochemical; details: for Phosphorylation by PKCa (Table 2): Mean ± Standard deviation, n = 3, no peptide substrate 1282 ± 51; for Relative phosphorylation by PKCa: kinase with ATP alone, no peptide = 100, peptide ~250 μM, ATP 250 μM, 30 min
T3 construct: GST; purchased SignalChem P61-18G

[13] = molecular target: T4, CK1d (Homo sapiens, UniProt P48730); assay: as above; type: biochemical; details: kinase with ATP alone, no peptide = 100; peptide ~250 μM, ATP 250 μM, 30 min
T4 construct: GST; purchased SignalChem C65-10G
T4 sequence (P48730 whole entry): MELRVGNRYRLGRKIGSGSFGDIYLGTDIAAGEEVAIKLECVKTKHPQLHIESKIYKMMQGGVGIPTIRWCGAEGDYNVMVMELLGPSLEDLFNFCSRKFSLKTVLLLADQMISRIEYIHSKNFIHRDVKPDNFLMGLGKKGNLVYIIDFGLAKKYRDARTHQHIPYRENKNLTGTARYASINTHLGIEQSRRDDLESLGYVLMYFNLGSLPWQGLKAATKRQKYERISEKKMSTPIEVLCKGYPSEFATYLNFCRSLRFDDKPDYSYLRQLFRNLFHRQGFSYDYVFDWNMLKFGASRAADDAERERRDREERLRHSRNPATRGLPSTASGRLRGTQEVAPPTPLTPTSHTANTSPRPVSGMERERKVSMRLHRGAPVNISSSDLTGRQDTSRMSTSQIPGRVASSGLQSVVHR

[14] = molecular target: CDK2 + Cyclin A2 (Homo sapiens, UniProt P24941); assay: as above; type: biochemical; details: kinase with ATP alone, no peptide = 100; peptide ~250 μM, ATP 250 μM, 30 min
[15] = molecular target: T5, ERK1 (Homo sapiens, UniProt P27361); assay: as above; type: biochemical; details: kinase with ATP alone, no peptide = 100; peptide ~250 μM, ATP 250 μM, 30 min
T5 construct: GST; purchased SignalChem M29-10G
T5 sequence (P27361 whole entry): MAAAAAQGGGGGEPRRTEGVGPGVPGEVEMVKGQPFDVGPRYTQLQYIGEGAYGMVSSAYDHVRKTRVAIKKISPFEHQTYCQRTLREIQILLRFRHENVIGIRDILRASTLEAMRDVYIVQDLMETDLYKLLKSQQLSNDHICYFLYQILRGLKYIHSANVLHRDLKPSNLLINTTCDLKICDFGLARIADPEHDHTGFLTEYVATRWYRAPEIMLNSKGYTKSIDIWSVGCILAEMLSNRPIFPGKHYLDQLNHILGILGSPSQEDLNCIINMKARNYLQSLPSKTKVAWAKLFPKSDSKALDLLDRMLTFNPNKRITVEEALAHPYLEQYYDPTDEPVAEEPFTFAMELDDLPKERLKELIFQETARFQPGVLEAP

[16] = molecular target: T6, CK1g1 (Homo sapiens, UniProt Q9HCP0); assay: as above; type: biochemical; details: kinase with ATP alone, no peptide = 100; peptide ~250 μM, ATP 250 μM, 30 min
T6 construct: GST; purchased SignalChem C68-11G
T6 sequence (Q9HCP0 whole entry): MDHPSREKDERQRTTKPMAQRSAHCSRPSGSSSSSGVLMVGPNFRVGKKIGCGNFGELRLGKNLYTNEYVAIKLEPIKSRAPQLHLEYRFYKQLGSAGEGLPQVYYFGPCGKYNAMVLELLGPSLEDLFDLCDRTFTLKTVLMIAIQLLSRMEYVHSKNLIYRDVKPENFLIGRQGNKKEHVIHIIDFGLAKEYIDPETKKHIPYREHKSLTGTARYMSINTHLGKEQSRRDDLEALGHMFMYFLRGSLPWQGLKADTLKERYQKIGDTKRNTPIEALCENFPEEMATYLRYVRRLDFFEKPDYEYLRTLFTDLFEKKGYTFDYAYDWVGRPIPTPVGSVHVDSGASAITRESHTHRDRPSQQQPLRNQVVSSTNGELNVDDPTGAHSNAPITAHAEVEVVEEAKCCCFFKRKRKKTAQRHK

[17] = molecular target: T7, CK2a1 (Homo sapiens, UniProt P68400); assay: as above; type: biochemical; details: kinase with ATP alone, no peptide = 100; peptide ~250 μM, ATP 250 μM, 30 min
T7 construct: GST; purchased SignalChem C70-10G
T7 sequence (P68400 whole entry): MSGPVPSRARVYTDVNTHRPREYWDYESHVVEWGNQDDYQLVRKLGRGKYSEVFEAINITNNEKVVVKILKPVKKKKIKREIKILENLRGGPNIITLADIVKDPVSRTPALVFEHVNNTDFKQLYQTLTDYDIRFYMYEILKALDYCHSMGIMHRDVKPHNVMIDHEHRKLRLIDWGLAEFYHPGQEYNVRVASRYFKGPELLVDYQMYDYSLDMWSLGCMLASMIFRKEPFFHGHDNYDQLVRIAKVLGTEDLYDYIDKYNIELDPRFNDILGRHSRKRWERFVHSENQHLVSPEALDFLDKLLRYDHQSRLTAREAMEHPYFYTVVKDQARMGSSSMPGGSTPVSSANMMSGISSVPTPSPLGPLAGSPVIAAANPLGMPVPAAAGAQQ

[18] = molecular target: T8, CK1a1 (Homo sapiens, UniProt P48729); assay: as above; type: biochemical; details: kinase with ATP alone, no peptide = 100; peptide ~250 μM, ATP 250 μM, 30 min
T8 construct: GST; purchased SignalChem C64-10G
T8 sequence (P48729 whole entry): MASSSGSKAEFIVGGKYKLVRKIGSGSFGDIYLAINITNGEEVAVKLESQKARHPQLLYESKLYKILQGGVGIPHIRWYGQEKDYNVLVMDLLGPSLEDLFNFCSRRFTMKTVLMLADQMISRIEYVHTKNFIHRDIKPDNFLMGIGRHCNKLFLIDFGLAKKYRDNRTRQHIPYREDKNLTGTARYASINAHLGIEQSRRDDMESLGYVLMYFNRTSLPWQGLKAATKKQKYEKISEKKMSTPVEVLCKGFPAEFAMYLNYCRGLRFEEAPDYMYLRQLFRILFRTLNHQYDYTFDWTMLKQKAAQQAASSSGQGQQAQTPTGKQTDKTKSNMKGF

[19] = average of screens 1 and 2, read-out: Average SARS-CoV-2 Nucleocapsid inhibition
[20] = screen 1, read-out: SARS-CoV-2 inhibition (% Nucleocapsid) 1
[21] = screen 2, read-out: SARS-CoV-2 inhibition (% Nucleocapsid) 2
[22] = read-out: SARS-CoV-2 inhibition (% dsRNA)

Compound	ED50, activity against HCoV-229E [4]	CC50 [6] [µM]	Average cell loss (%) [8] [%]	ED50, activity against SARS-CoV-2 [9]	inhibition at 10 µM [9, 19] [%]	inhibition at 10 µM [9, 20] [%]	inhibition at 10 µM [9, 21] [%]	inhibition at 10 µM [9, 22] [%]	Relative phosphorylation by PKACa [10]	Phosphorylation by GSK3b (Table 2) [11]	Relative phosphorylation by GSK3b [11]	Phosphorylation by PKCa (Table 2) [12]	Relative phosphorylation by PKCa [12]	also measured
CSc1ccc(-n2cnc3ccc(-c4nnc(CCc5cccc(C#N)c5)o4)cc32)cc1 [P-0717632]	~ 3 μM	> 100	24.4	2.7 µM	79.3	75.2	83.3	68.2	–	–	–	–	–	average Combination Index (CI) [1]: 0.7; IC50 [2]: 0.102 µM; effect on intracellular N protein levels [3]: greatly decrease intracellular N protein levels; reduction of viral titres [5]: 2 log; N protein in remaining infected cells [7]: accumulated; S protein expression [7]: reduced; ED50, activity against SARS-CoV-2 ([9]; listed as T-1686568): ~ 3 μM; ED80 ([9]; infected Huh-7.5.1 cells): 10 µM
C[S+]([O-])c1ccc(-c2coc3ccc(-c4nnc(SCc5cccc(F)c5)o4)cc23)cc1 (stereo not shown) [P-7657632]	~ 3 μM	39	25.4	~ 3 μM and 2.9 μM	93.1	100	86.2	100	–	–	–	–	–	–
CSc1ccc(-c2coc3ccc(-c4nnc(N)o4)cc23)cc1Cl [P-9071942]	~ 3 μM	27	29.9	~ 3 μM and 3.3 μM	94.5	100	89.1	100	–	–	–	–	–	–
RGGSQASSRSS(pS)RS (RGGSQASSRSS[pS′]RS) [SCV2-N [177-190] - pS188, synthetic peptide modeled after SARS-CoV-2 nucleocapsid phosphorylation sites, pre-phosphorylated at S188]	–	–	–	–	–	–	–	–	128	24,585 ± 645	1209	3861 ± 71	389	–
RNSTPGSSRGT(pS)PAR (RNSTPGSSRGT[pS′]PAR) [SCV2-N [195-209] - pS206, synthetic peptide modeled after SARS-CoV-2 nucleocapsid phosphorylation sites, pre-phosphorylated at S206]	–	–	–	–	–	–	–	–	205	24,082 ± 381	1068	1531 ± 47	–	Relative phosphorylation by CK1d [13]: 105; Relative phosphorylation by CDK2 + Cyclin A2 [14]: 100; Relative phosphorylation by ERK1 [15]: 100; Relative phosphorylation by CK1g1 [16]: 105
SQASSRSSSR(pS)RNS (SQASSRSSSR[pS′]RNS) [SCV2-N [180-193] - pS190, synthetic peptide modeled after SARS-CoV-2 nucleocapsid phosphorylation sites, pre-phosphorylated at S190]	–	–	–	–	–	–	–	–	312	2957 ± 3	111	4161 ± 66	418	Relative phosphorylation by CK2a1 [17]: 100
SSRSRNSSRNS(pT)PG (SSRSRNSSRNS[pT′]PG) [SCV2-N [187-200] - pT198, synthetic peptide modeled after SARS-CoV-2 nucleocapsid phosphorylation sites, pre-phosphorylated at T198]	–	–	–	–	–	–	–	–	157	23,031 ± 486	1042	7032 ± 319	553	Relative phosphorylation by CK1a1 [18]: 250; Relative phosphorylation by CK1d [13]: 152; Relative phosphorylation by CDK2 + Cyclin A2 [14]: 101; Relative phosphorylation by ERK1 [15]: 100; Relative phosphorylation by CK2a1 [17]: 102
